Data from patent publication US20260007681A1, “INDOLE DERIVATIVES AS ESTROGEN RECEPTOR DEGRADERS” (REGENTS OF THE UNIVERSITY OF MICHIGAN, priority 2022, published 2026).

Key:
ER = ER (Homo sapiens (Human), UniProt P03372); test: In-cell western blot analysis of relative ER percentage (Compounds B1-B278); assay type: cell-based; conditions: ER degradation, 16 hours, read-out: ICW DC50
Description: In-cell western blot analysis. Cells are seeded in multi-well plates (e.g., at 40,000 or 10,000 cells/well). Diluted compounds at certain concentration are added (final 0.5% DMSO) and cells are incubated for […] (e.g., 16 hours). Formaldehyde (e.g., PBS:FA=9:1) is added and followed by washing with PBS. The cells are blocked with Licor blocking buffer (Li-Cor). The relative ER percentage in treated cells are obtained by comparing the values of treated wells to those in untreated and DMSO-treated wells as 100%.
In-cell western blot analysis. a. seed cells in black-sided/clear bottom 96- or 384-well plates at 40,000 or 10,000 cells/well, overnight; b. add diluted compounds (final 0.5% DMSO), 16 hours. 16 h later, remove medium, add 100 μL or 25 μL of 3.7-4.0% formaldehyde (PBS:FA=9:1), RT 20 min, no shaking; c. wash with PBS, and permeabilized with 100 μL or 25 μL/well of 1×PBS+0.1% Triton X-100 10 minutes; d. block with 100 μL or 25 μL Licor blocking buffer (Li-Cor), RT 1 h, moderate shaking; d. Add 100 μL or 25 μL of anti-ER (cs-8644, 1:500-1,000)+GAPDH(Millipore MAB374, 1:1000) in Block+0.05% Tween 20. RT 2 h, gentle shaking. Negative control: cells plus secondary antibodies (no primary antibodies); e. wash×4 with PBS +0.05-0.1% Tween 20, gentel shaking; f. anti-rabbit-680 and anti-mouse-800 (both 1:1000 in LiCor block +0.05% Tween20, RT 1 h, gentle shaking, no light. LI-COR: 0.2% to reduce background; g. wash×4 with PBS+0.05% Tween 20, gental shaking; h. add 100 μL or 25 μL of PBS to each well and read on CLX plate reader. The relative ER percentage in treated cells were obtained by comparing the values of treated wells to those in untreated and DMSO-treated wells as 100%.

[1] = Cell growth assay (WST-8) (Compounds B1-B278); assay type: cell-based; conditions: 96 h; T47D cell line; WST-8, 4 days; read-out: Cell Growth Inhibition in T47D cell line IC50
Description: Cell Growth Assay. The cells are seeded at certain concentration (e.g., at 1500/well) in multi-well plates overnight. Cells are subsequently treated with the compounds. A certain period of time (e.g., 4 days) after the compound treatment, 10% WST-8 reagent is added to the culture medium and incubate under certain condiction (e.g., in a CO2 incubator at 37° C. for 2.5 hours). The absorbance is measured on each sample using a microplate reader at certain wavelength (e.g., 450 nm). The relative absorbance is calculated against the vehicle control from three individually repeats.
Cell Growth Assay. The cells were seeded at 1500/well in 96 well plates overnight. One day after the seeding, they were treated with indicated doses of compounds respectively. 4 days after the compound treatment, 10% WST-8 reagent was added to the culture medium and incubate in a CO2 incubator at 37° C. for 2.5 hours. Before reading, the plate was mixed gently on an orbital shaker for one minute to ensure homogeneous distribution of color. The absorbance was measured of each sample using a microplate reader at a wavelength of 450 nm. The relative absorbance was calculated against the vehicle control from three individually repeats.

ER, sequence (P03372 whole entry): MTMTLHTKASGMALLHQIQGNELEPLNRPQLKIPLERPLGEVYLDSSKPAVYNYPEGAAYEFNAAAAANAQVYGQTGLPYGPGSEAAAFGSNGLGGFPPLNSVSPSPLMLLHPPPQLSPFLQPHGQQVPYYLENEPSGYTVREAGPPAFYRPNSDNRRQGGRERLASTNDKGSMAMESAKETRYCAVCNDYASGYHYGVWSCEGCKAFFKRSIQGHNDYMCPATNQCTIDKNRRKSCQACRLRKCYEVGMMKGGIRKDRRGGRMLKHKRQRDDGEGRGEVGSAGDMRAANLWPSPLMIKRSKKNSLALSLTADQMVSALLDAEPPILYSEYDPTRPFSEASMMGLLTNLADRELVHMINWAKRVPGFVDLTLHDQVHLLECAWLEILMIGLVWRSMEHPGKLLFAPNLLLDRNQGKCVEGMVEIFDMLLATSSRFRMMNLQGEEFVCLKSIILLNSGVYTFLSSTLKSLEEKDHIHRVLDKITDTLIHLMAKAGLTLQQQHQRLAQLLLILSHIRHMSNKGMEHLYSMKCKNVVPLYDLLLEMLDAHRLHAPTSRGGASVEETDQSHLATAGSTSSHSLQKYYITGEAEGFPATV

Row | DC50 (ER) [nM] | SMILES | IC50 [1] [nM]
1 | 10 to 100 | C[C@@H]1Cc2c([nH]c3ccccc23)[C@@H](c2cnc(N3CCC4(CCC(CN5CCN6c7cc8c(cc7OC[C@@H]6C5)C(=O)N(C5CCC(=O)NC5=O)C8)CC4)CC3)nc2)N1CC(C)(C)F (stereo partly drawn) [Compound B137, 3-((S)-3-((3-(5-((1R,3R)-2-(2-fluoro-2-methylpropyl)-3-methyl-2,3,4,9-tetrahydro-1H-pyrido[3,4-b]indol-1-yl)pyrimidin-2-yl)-3-azaspiro[5.5]undecan-9-yl)methyl)-8-oxo-1,2,3,4,4a,5,8,10-octahydro-9H-pyrazino[1′,2′:4,5][1,4]oxazino[2,3-f]isoindol-9-yl)piperidine-2,6-dione] | > 10
2 | 10 to 100 | C[C@@H]1Cc2c([nH]c3ccccc23)[C@@H](c2c(F)cc(-c3ncc(C(=O)N4CCN5c6cc7c(cc6OC[C@@H]5C4)C(=O)N([C@H]4CCC(=O)NC4=O)C7)cn3)cc2F)N1CC(F)F [Compound B117, (S)-3-((S)-3-(2-(4-((1R,3R)-2-(2,2-difluoroethyl)-3-methyl-2,3,4,9-tetrahydro-1H-pyrido[3,4-b]indol-1-yl)-3,5-difluorophenyl)pyrimidine-5-carbonyl)-8-oxo-1,2,3,4,4a,5,8,10-octahydro-9H-pyrazino[1′,2′:4,5][1,4]oxazino[2,3-f]isoindol-9-yl)piperidine-2,6-dione] | 1 to 10
3 | > 100 | C[C@@H]1Cc2c([nH]c3ccccc23)[C@@H](c2c(F)cc(N3CCC(CN4CCN5c6c(ccc7c6CN(C6CCC(=O)NC6=O)C7=O)OC[C@@H]5C4)CC3)cc2F)N1CC(F)F (stereo partly drawn) [Compound B173, 3-((S)-9-((1-(4-((1R,3R)-2-(2,2-difluoroethyl)-3-methyl-2,3,4,9-tetrahydro-1H-pyrido[3,4-b]indol-1-yl)-3,5-difluorophenyl)piperidin-4-yl)methyl)-3-oxo-1,3,7,7a,8,9,10,11-octahydro-2H-pyrazino[1′,2′:4,5][1,4]oxazino[3,2-e]isoindol-2-yl)piperidine-2,6-dione] | < 1
4 | > 100 | C[C@@H]1Cc2c([nH]c3ccccc23)[C@@H](c2c(F)cc(N3CC[C@@H](CN4CCN5c6ccc7c(c6OC[C@H]5C4)CN(C4CCC(=O)NC4=O)C7=O)C3)cc2F)N1CC(F)(F)CO (stereo partly drawn) [Compound B149, 3-((R)-7-(((S)-1-(4-((1R,3R)-2-(2,2-difluoro-3-hydroxypropyl)-3-methyl-2,3,4,9-tetrahydro-1H-pyrido[3,4-b]indol-1-yl)-3,5-difluorophenyl)pyrrolidin-3-yl)methyl)-1-oxo-1,3,5,5a,6,7,8,9-octahydro-2H-pyrazino[1′,2′:4,5][1,4]oxazino[2,3-e]isoindol-2-yl)piperidine-2,6-dione] | 1 to 10
5 | 10 to 100 | C[C@@H]1Cc2c([nH]c3ccccc23)[C@@H](c2cnc(N3CCC(OCCN4CCN5c6cc7c(cc6OC[C@@H]5C4)C(=O)N([C@@H]4CCC(=O)NC4=O)C7)CC3)nc2)N1CC(F)F [Compound B123, (R)-3-((S)-3-(2-((1-(5-((1R,3R)-2-(2,2-difluoroethyl)-3-methyl-2,3,4,9-tetrahydro-1H-pyrido[3,4-b]indol-1-yl)pyrimidin-2-yl)piperidin-4-yl)oxy)ethyl)-8-oxo-1,2,3,4,4a,5,8,10-octahydro-9H-pyrazino[1′,2′:4,5][1,4]oxazino[2,3-f]isoindol-9-yl)piperidine-2,6-dione] | 1 to 10
6 | < 10 | C[C@@H]1Cc2c([nH]c3ccccc23)[C@@H](c2cnc(N3CCC4(CC3)CN(CC(=O)N3CCN5c6ccc7c(c6OC[C@H]5C3)CN(C3CCC(=O)NC3=O)C7=O)C4)nc2)N1CC(F)(F)F (stereo partly drawn) [Compound B175, 3-((R)-7-(2-(7-(5-((1R,3R)-3-methyl-2-(2,2,2-trifluoroethyl)-2,3,4,9-tetrahydro-1H-pyrido[3,4-b]indol-1-yl)pyrimidin-2-yl)-2,7-diazaspiro[3.5]nonan-2-yl)acetyl)-1-oxo-1,3,5,5a,6,7,8,9-octahydro-2H-pyrazino[1′,2′:4,5][1,4]oxazino[2,3-e]isoindol-2-yl)piperidine-2,6-dione] | 1 to 10
7 | > 100 | C[C@@H]1Cc2c([nH]c3ccccc23)[C@@H](c2cnc(N3CCC4(CCC(CN5CCN6c7ccc8c(c7OC[C@H]6C5)CN(C5CCC(=O)NC5=O)C8=O)CC4)CC3)nc2)N1CC(C)(C)F (stereo partly drawn) [Compound B162, 3-((R)-7-((3-(5-((1R,3R)-2-(2-fluoro-2-methylpropyl)-3-methyl-2,3,4,9-tetrahydro-1H-pyrido[3,4-b]indol-1-yl)pyrimidin-2-yl)-3-azaspiro[5.5]undecan-9-yl)methyl)-1-oxo-1,3,5,5a,6,7,8,9-octahydro-2H-pyrazino[1′,2′:4,5][1,4]oxazino[2,3-e]isoindol-2-yl)piperidine-2,6-dione] | > 10
8 | 10 to 100 | C[C@@H]1Cc2c([nH]c3ccccc23)[C@@H](c2c(F)cc(N3CC(C(=O)N4CCN5c6ccc7c(c6OC[C@H]5C4)CN(C4CCC(=O)NC4=O)C7=O)C3)cc2F)N1CC(F)F (mixture of isomers) [Compound B251, 3-((RS)-7-(1-(4-((1R,3R)-2-(2,2-difluoroethyl)-3-methyl-2,3,4,9-tetrahydro-1H-pyrido[3,4-b]indol-1-yl)-3,5-difluorophenyl)azetidine-3-carbonyl)-1-oxo-1,3,5,5a,6,7,8,9-octahydro-2H-pyrazino[1′,2′:4,5][1,4]oxazino[2,3-e]isoindol-2-yl)piperidine-2,6-dione] | < 1
9 | 10 to 100 | C[C@@H]1Cc2c([nH]c3ccccc23)[C@@H](c2c(F)cc(N3CCC4(CC3)CN(CC(=O)N3CCN5c6ccc7c(c6OC[C@H]5C3)CN(C3CCC(=O)NC3=O)C7=O)C4)cc2F)N1CC(F)F (stereo partly drawn) [Compound B177, 3-((R)-7-(2-(7-(4-((1R,3R)-2-(2,2-difluoroethyl)-3-methyl-2,3,4,9-tetrahydro-1H-pyrido[3,4-b]indol-1-yl)-3,5-difluorophenyl)-2,7-diazaspiro[3.5]nonan-2-yl)acetyl)-1-oxo-1,3,5,5a,6,7,8,9-octahydro-2H-pyrazino[1′,2′:4,5][1,4]oxazino[2,3-e]isoindol-2-yl)piperidine-2,6-dione] | < 1
10 | 10 to 100 | C[C@@H]1Cc2c([nH]c3ccccc23)[C@@H](c2c(F)cc(N3CCC4(CC3)OCC(CN3CCN5c6cc7c(cc6OC[C@@H]5C3)C(=O)N(C3CCC(=O)NC3=O)C7)CO4)cc2F)N1CC(F)(F)CO (stereo partly drawn) [Compound B270, 3-((S)-3-((9-(4-((1R,3R)-2-(2,2-difluoro-3-hydroxypropyl)-3-methyl-2,3,4,9-tetrahydro-1H-pyrido[3,4-b]indol-1-yl)-3,5-difluorophenyl)-1,5-dioxa-9-azaspiro[5.5]undecan-3-yl)methyl)-8-oxo-1,2,3,4,4a,5,8,10-octahydro-9H-pyrazino[1′,2′:4,5][1,4]oxazino[2,3-f]isoindol-9-yl)piperidine-2,6-dione] | < 1
11 | > 100 | C[C@@H]1Cc2c([nH]c3ccccc23)[C@@H](c2ccc(N3CCC4(CC3)CC(CN3CCN5c6ccc7c(c6OC[C@H]5C3)CN(C3CCC(=O)NC3=O)C7=O)C4)nc2)N1CC(F)F (stereo partly drawn) [Compound B169, 3-((R)-7-((7-(5-((1R,3R)-2-(2,2-difluoroethyl)-3-methyl-2,3,4,9-tetrahydro-1H-pyrido[3,4-b]indol-1-yl)pyridin-2-yl)-7-azaspiro[3.5]nonan-2-yl)methyl)-1-oxo-1,3,5,5a,6,7,8,9-octahydro-2H-pyrazino[1′,2′:4,5][1,4]oxazino[2,3-e]isoindol-2-yl)piperidine-2,6-dione] | 1 to 10

Row | SMILES | DC50 (ER) [nM] | IC50 [1] [nM]
12 | C[C@@H]1Cc2c([nH]c3ccccc23)[C@@H](c2cnc(N3CCC4(CC3)CC(CN3CCC5(CC3)COc3c5ccc5c3CN(C3CCC(=O)NC3=O)C5=O)C4)nc2)N1CC(F)F (stereo partly drawn) [Compound B262, 3-(1′-((7-(5-((1R,3R)-2-(2,2-difluoroethyl)-3-methyl-2,3,4,9-tetrahydro-1H-pyrido[3,4-b]indol-1-yl)pyrimidin-2-yl)-7-azaspiro[3.5]nonan-2-yl)methyl)-6-oxo-6,8-dihydro-2H,7H-spiro[furo[2,3-e]isoindole-3,4′-piperidin]-7-yl)piperidine-2,6-dione] | 10 to 100 | < 1
